Values quoted from earlier work, collected in patent US20100003322A1, “ENTERIC COATED HYDROPHOBIC MATRIX FORMULATION” (priority 2008, published 2010).
Counter-ions that a name gives are not always drawn.

Conditions: for solubility as described in the package insert: water, for gabapentin also basic and acidic aqueous solutions; for water solubility: volume of water that dissolves 1 g: 1 g of drug in the stated ml of water

| Compound | solubility as described in the package insert | water solubility: amount dissolved in 100 ml of water (in 100 ml of water) | water solubility: volume of water that dissolves 1 g |
| --- | --- | --- | --- |
| NCC1(CC(=O)O)CCCCC1 [gabapentin, 1-(aminomethyl)cyclohexaneacetic acid] | freely soluble |  |  |
| CC[C@@H](C(N)=O)N1CCCC1=O [levetiracetam, (−)-(S)-α-ethyl-2-oxo-1-pyrrolidine acetamide] | very soluble | approximately 104 grams |  |
| CCCC(CCC)C(=O)[O-].[Na+] [sodium valproate, sodium 2-propylpentanoate] |  |  | 0.4 mL |
| COc1cccc(C2(O)CCCCC2CN(C)C)c1 (centres unmarked) [tramadol hydrochloride] |  |  | ~33 mL |
